Data: patent publication US10670605B2, “Cysteine reactive probes and uses thereof” (The Scripps Research Institute, priority 2015, dated 2020)
Each block holds one compound with its values, some of them ahead of it.

How the values were obtained:
Assay in all cases: Competitive isoTOP-ABPP, cell lysates
Assay type in all cases: binding
PDE12 C108 (Q6L8Q7) = molecular target: T1, PDE12 C108 (Q6L8Q7) (Homo sapiens, UniProt Q6L8Q7); conditions: for R value (DMSO/fragment) / isoTOP-ABPP ratio, Q6L8Q7_C108: 500 μM; for isoTOP-ABPP ratio, Q6L8Q7_C108: 231
T1 sequence (Q6L8Q7 43-609): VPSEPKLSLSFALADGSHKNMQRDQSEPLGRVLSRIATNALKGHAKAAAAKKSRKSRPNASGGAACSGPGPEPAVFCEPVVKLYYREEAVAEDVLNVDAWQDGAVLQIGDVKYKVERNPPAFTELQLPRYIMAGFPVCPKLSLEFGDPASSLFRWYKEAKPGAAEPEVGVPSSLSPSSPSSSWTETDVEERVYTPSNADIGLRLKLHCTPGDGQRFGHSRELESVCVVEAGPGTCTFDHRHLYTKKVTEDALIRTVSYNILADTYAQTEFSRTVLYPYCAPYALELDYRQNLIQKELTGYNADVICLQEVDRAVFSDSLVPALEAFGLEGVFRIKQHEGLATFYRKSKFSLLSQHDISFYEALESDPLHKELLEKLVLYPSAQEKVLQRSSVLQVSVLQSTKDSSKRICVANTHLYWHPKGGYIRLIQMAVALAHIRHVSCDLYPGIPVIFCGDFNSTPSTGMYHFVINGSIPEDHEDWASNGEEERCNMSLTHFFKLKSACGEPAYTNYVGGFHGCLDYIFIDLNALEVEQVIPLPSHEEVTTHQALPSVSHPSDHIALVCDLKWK

GNB2L1 C182 (P63244) = GNB2L1 C182 (P63244) (Homo sapiens, UniProt P63244)
IDH2 C308 (P48735) = molecular target: T2, IDH2 C308 (P48735) (Homo sapiens, UniProt P48735); conditions: for R value (DMSO/fragment): in vitro, MDA-MB-231; for isoTOP-ABPP ratio, P48735_C308: invitro, 231; for isoTOP-ABPP ratio (reactivity profile), P48735_C308: 500 μm in-vitro ramos_231
T2 sequence (P48735 40-452): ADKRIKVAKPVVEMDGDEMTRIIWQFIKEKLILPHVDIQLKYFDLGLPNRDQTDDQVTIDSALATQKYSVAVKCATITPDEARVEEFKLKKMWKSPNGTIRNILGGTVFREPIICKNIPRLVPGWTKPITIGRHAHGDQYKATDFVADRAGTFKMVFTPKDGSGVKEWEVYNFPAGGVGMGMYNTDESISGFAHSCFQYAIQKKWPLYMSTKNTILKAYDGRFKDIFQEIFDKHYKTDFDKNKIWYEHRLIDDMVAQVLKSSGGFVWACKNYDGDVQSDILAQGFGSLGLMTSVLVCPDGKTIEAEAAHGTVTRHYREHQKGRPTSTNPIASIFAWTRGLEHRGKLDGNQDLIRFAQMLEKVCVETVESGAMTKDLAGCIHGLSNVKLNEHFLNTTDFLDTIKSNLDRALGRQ

MGMT C150 (P16455) = molecular target: T3, MGMT C150 (P16455) (Homo sapiens, UniProt P16455); conditions: for isoTOP-ABPP ratio (reactivity profile), P16455_C150: 500 μm in-vitro ramos
T3 sequence (P16455 1-207): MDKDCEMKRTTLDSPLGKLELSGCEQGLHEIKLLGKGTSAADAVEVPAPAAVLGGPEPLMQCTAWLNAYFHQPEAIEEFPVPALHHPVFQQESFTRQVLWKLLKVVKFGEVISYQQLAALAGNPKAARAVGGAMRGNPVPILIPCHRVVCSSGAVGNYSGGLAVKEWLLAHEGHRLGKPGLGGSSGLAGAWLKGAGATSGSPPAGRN

USP22 C171 (Q9UPT9) = molecular target: T4, USP22 C171 (Q9UPT9) (Homo sapiens, UniProt Q9UPT9)
T4 sequence (Q9UPT9 1-525): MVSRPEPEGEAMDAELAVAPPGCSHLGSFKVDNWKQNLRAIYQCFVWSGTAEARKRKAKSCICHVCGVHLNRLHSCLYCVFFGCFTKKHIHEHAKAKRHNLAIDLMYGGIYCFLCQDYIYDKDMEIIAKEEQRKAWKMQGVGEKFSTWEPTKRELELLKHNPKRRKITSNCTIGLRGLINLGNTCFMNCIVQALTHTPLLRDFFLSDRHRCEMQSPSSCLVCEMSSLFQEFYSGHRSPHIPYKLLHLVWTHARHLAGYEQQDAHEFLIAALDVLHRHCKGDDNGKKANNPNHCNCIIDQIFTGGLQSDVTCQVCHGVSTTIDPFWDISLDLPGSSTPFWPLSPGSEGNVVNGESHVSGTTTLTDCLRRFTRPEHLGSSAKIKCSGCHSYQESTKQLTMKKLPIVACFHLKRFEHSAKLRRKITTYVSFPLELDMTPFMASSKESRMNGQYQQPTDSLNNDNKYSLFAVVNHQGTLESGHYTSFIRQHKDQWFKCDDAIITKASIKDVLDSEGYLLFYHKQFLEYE

Structure (SMILES): O=C(CCl)NC1C(O)OC(CO)C(O)C1O (mixture of isomers) [compound 44]
- isoTOP-ABPP reactivity profile ratio, Q6L8Q7_C108 (PDE12 C108 (Q6L8Q7); 500 μm, in-vitro_ramos_231): 0.8

Structure (SMILES): COc1ccc2c(c1)CCCN2C(=O)CCl [compound 2]
- R value (DMSO/fragment) (GNB2L1 C182 (P63244); 500 μM, in vitro, MDA-MB-231): 1.2
- R value (DMSO/fragment) (GNB2L1 C182 (P63244); 500 μM, invitro, ramos): 1.2
- R value (DMSO/fragment) (IDH2 C308 (P48735); 500 μM): 1.4
- R value (DMSO/fragment) (MGMT C150 (P16455); 500 μM, invitro, ramos): 20.0
- R value (DMSO/fragment) (PDE12 C108 (Q6L8Q7); invitro, ramos): 5.1
- R value (DMSO/fragment) (USP22 C171 (Q9UPT9); 500 μM, invitro, ramos): 7.1

Structure (SMILES): O=C(CCl)Nc1cc(C(F)(F)F)cc(C(F)(F)F)c1 [compound 3]
- R value (DMSO/fragment) (GNB2L1 C182 (P63244); 500 μM, in vitro, MDA-MB-231): 20.0
- R value (DMSO/fragment) (GNB2L1 C182 (P63244); 500 μM, invitro, ramos): 4.7
- R value (DMSO/fragment) (IDH2 C308 (P48735); 500 μM): 2.2
- R value (DMSO/fragment) (MGMT C150 (P16455); 500 μM, invitro, ramos): 17.1
- R value (DMSO/fragment) (PDE12 C108 (Q6L8Q7); in vitro, MDA-MB-231): 3.6
- R value (DMSO/fragment) (PDE12 C108 (Q6L8Q7); invitro, ramos): 1.8

Structure (SMILES): Cn1cc(S(=O)(=O)N2CCOCC2)cc1C(=O)NC(=O)CCl [compound 11]
- isoTOP-ABPP ratio, P63244_C182 (GNB2L1 C182 (P63244); 500 μM, invitro, 231): 1.0
- isoTOP-ABPP ratio, P63244_C182 (GNB2L1 C182 (P63244); 500 μM, invitro, ramos): 1.1
- isoTOP-ABPP ratio, P48735_C308 (IDH2 C308 (P48735); 500 μM): 1.1
- isoTOP-ABPP ratio, P16455_C150 (MGMT C150 (P16455); 500 μM, invitro, ramos): 20.0
- isoTOP-ABPP ratio, Q6L8Q7_C108 (PDE12 C108 (Q6L8Q7); invitro): 4.2
- isoTOP-ABPP ratio, Q9UPT9_C171 (USP22 C171 (Q9UPT9); 500 μM, invitro, ramos): 8.2

Structure (SMILES): O=C(CCl)NC12CC3CC(CC(C3)C1)C2 [compound 21]
- isoTOP-ABPP ratio (reactivity profile), P63244_C182 (GNB2L1 C182 (P63244); 500 μm in-vitro ramos): 0.9
- isoTOP-ABPP ratio (reactivity profile), P63244_C182 (GNB2L1 C182 (P63244); 500 μm in-vitro ramos_231): 0.9
- isoTOP-ABPP ratio (reactivity profile), P48735_C308 (IDH2 C308 (P48735)): 0.6
- isoTOP-ABPP ratio (reactivity profile), P16455_C150 (MGMT C150 (P16455)): 17.2

Structure (SMILES): O=C(CCl)N1CCOCC1 [compound 22]
- isoTOP-ABPP ratio (reactivity profile), P63244_C182 (GNB2L1 C182 (P63244); 500 μm in-vitro ramos_231): 1.6
- isoTOP-ABPP ratio (reactivity profile), P16455_C150 (MGMT C150 (P16455)): 2.9
- isoTOP-ABPP ratio (reactivity profile), Q9UPT9_C171 (USP22 C171 (Q9UPT9); 500 μm in-vitro ramos): 1.1

Structure (SMILES): N#C/C(=C\c1cc(C(F)(F)F)cc(C(F)(F)F)c1)C(N)=O [compound 23]
- isoTOP-ABPP ratio (reactivity profile), P63244_C182 (GNB2L1 C182 (P63244); 500 μm in-vitro ramos_231): 4.6
- isoTOP-ABPP ratio (reactivity profile), P16455_C150 (MGMT C150 (P16455)): 1.0
- isoTOP-ABPP ratio (reactivity profile), Q6L8Q7_C108 (PDE12 C108 (Q6L8Q7); 500 μm in-vitro ramos_231): 1.0
- isoTOP-ABPP ratio (reactivity profile), Q9UPT9_C171 (USP22 C171 (Q9UPT9); 500 μm in-vitro ramos_231): 5.1

Structure (SMILES): CC(Br)C(=O)Nc1cc(C(F)(F)F)cc(C(F)(F)F)c1 (stereo not drawn) [compound 24]
- isoTOP-ABPP ratio (reactivity profile), P63244_C182 (GNB2L1 C182 (P63244); 500 μm in-vitro ramos): 2.6
- isoTOP-ABPP ratio (reactivity profile), P16455_C150 (MGMT C150 (P16455)): 4.0
- isoTOP-ABPP ratio (reactivity profile), Q6L8Q7_C108 (PDE12 C108 (Q6L8Q7); 500 μm in-vitro ramos): 1.4
- isoTOP-ABPP ratio (reactivity profile), Q9UPT9_C171 (USP22 C171 (Q9UPT9); 500 μm in-vitro ramos): 3.1

Structure (SMILES): CC(Cl)C(=O)Nc1cc(C(F)(F)F)cc(C(F)(F)F)c1 (stereo not drawn) [compound 25]
- isoTOP-ABPP ratio (reactivity profile), P63244_C182 (GNB2L1 C182 (P63244); 500 μm in-vitro ramos_231): 1.2
- isoTOP-ABPP ratio (reactivity profile), P48735_C308 (IDH2 C308 (P48735)): 14.5
- isoTOP-ABPP ratio (reactivity profile), Q6L8Q7_C108 (PDE12 C108 (Q6L8Q7); 500 μm in-vitro ramos_231): 0.8
- isoTOP-ABPP ratio (reactivity profile), Q9UPT9_C171 (USP22 C171 (Q9UPT9); 500 μm in-vitro ramos_231): 1.1

Next, values leading:

- R value (DMSO/fragment) (GNB2L1 C182 (P63244); 250 μM, in vitro, MDA-MB-231): 0.9
- R value (DMSO/fragment) (IDH2 C308 (P48735); 250 μM): 0.7
- R value (DMSO/fragment) (MGMT C150 (P16455); 250 μM, in vitro, Ramos): 6.9
- R value (DMSO/fragment) (USP22 C171 (Q9UPT9); 250 μM, in vitro, Ramos): 4.0
Structure (SMILES): COc1ccc(C2CC(c3cccs3)=NN2C(=O)CCl)cc1 (stereo not drawn) [compound 4]

- isoTOP-ABPP ratio, P63244_C182 (GNB2L1 C182 (P63244); 500 μM, invitro, 231): 1.5
- isoTOP-ABPP ratio, P63244_C182 (GNB2L1 C182 (P63244); 500 μM, invitro, ramos): 1.4
- isoTOP-ABPP ratio, P48735_C308 (IDH2 C308 (P48735); 500 μM): 0.8
- isoTOP-ABPP ratio, P16455_C150 (MGMT C150 (P16455); 500 μM, invitro, ramos): 9.6
- isoTOP-ABPP ratio, Q9UPT9_C171 (USP22 C171 (Q9UPT9); 500 μM, invitro, ramos): 20.0
Structure (SMILES): C=CC(=O)N(c1ccccc1)c1ccc(Br)cc1 [compound 5]

- isoTOP-ABPP ratio, P63244_C182 (GNB2L1 C182 (P63244); 500 μM, invitro, 231): 1.5
Structure (SMILES): CNS(=O)(=O)C=Cc1ccc2c(ccn2Cc2ccccc2)c1 [compound 6]

- isoTOP-ABPP ratio, P63244_C182 (GNB2L1 C182 (P63244); 500 μM, invitro, 231): 1.1
- isoTOP-ABPP ratio, P63244_C182 (GNB2L1 C182 (P63244); 500 μM, invitro, ramos): 1.1
- isoTOP-ABPP ratio, P48735_C308 (IDH2 C308 (P48735); 500 μM): 1.1
- isoTOP-ABPP ratio, P16455_C150 (MGMT C150 (P16455); 500 μM, invitro, ramos): 20.0
- isoTOP-ABPP ratio, Q9UPT9_C171 (USP22 C171 (Q9UPT9); 500 μM, invitro, ramos): 3.8
Structure (SMILES): O=C(CCl)N1CCN(S(=O)(=O)c2ccccc2F)CC1 [compound 10]

- isoTOP-ABPP ratio (reactivity profile), P63244_C182 (GNB2L1 C182 (P63244); 500 μm in-vitro ramos): 1.3
- isoTOP-ABPP ratio (reactivity profile), P16455_C150 (MGMT C150 (P16455)): 1.9
- isoTOP-ABPP ratio, Q6L8Q7_C108 (PDE12 C108 (Q6L8Q7); invitro): 1.1
Structure (SMILES): C=CC(=O)N(Cc1cccnc1)c1ccc(Oc2ccccc2)c(C(F)(F)F)c1 [compound 15]

- isoTOP-ABPP ratio (reactivity profile), P63244_C182 (GNB2L1 C182 (P63244); 500 μm in-vitro ramos): 1.0
- isoTOP-ABPP ratio (reactivity profile), P16455_C150 (MGMT C150 (P16455)): 0.9
- isoTOP-ABPP ratio (reactivity profile), Q6L8Q7_C108 (PDE12 C108 (Q6L8Q7); 500 μm in-vitro ramos): 1.1
- isoTOP-ABPP ratio (reactivity profile), Q9UPT9_C171 (USP22 C171 (Q9UPT9); 500 μm in-vitro ramos): 1.0
Structure (SMILES): O=C(/C=C/c1ccccc1)Nc1cc(C(F)(F)F)cc(C(F)(F)F)c1 [compound 26]
